Reference: patent publication US20240293413A1, “COMPOUND AND METHOD FOR TREATING CHEMOTHERAPY-RELATED GASTROINTESTINAL SIDE EFFECTS” (ONQUALITY PHARMACEUTICALS CHINA LTD., priority 2021, published 2024)

Tested on: Chemotherapeutic agent-caused diarrhea models of Balb/c mice
Test: Examples 1-229 (Table 3): oral CDK inhibitor, relief of diarrhea caused by a chemotherapeutic agent;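 also: percent of treated mice whose diarrhea grade fell below chemotherapy-group average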
Format: in vivo
Source text: Construction of mouse animal models: Chemotherapeutic agent-caused diarrhea models of Balb/c mice were constructed according to the administration mode and frequency of the chemotherapeutic agent as shown in Table 3.
Balb/c mice were fed for 1 week, and then divided into groups. The experiment was divided into a control group, a chemotherapeutic agent group, and a CDK inhibitor group, each of which comprised 10 mice, to perform the administration experiment, for which the administration dosage, mode, time and frequency were shown in Table 3. The control group: being intragastrically administered with the same solvent as that used in the CDK inhibitor group (the time was shown in Table 3), and then being injected/intragastrically administered with the same solvent as that used in the chemotherapeutic agent group (the administration mode was shown in Table 3): the chemotherapeutic agent group: being intragastrically administered with the same solvent as that used in the CDK inhibitor group (the time was shown in Table 3), and then being injected/intragastrically administered with the chemotherapeutic agent (the type, administration mode and dosage were shown in Table 3); the CDK inhibitor group: being intragastrically administered with the CDK inhibitor (the time was shown in Table 3), and then being administered with the chemotherapeutic agent (the mode and dosage were shown in Table 3).
The diarrhea grading of mice was observed and recorded every day.

## O=C1Nc2ccc([N+](=O)[O-])cc2/C1=C1/Nc2ccc(O)cc2/C1=N\O [AGM-130]
Example 39, Fluorouracil (5-Fu) intraperitoneal injection 125 mg/kg single, CDK inhibitor oral 80 mg/kg single 12 h before, cycle 10 days
  Relative remission rate (%): 30%

## C[C@H]1CC[C@H](n2c3cnccc3c3cnc(Nc4ccc5c(n4)CCN(C(=O)CO)C5)nc32)CC1 [AMG925]
Example 219, Fluorouracil 100 mg/kg and oxaliplatin 10 mg/kg intraperitoneal injection single, CDK inhibitor oral 150 mg/kg single, 2 h before, 10 days
  Relative remission rate (%): 60%

## O=C(NC1CCNCC1)c1[nH]ncc1NC(=O)c1c(Cl)cccc1Cl [AT-7519]
Example 205, Gemcitabine 60 mg/kg and paclitaxel 10 mg/kg intravenous injection single, CDK inhibitor oral 50 mg/kg single, 4 h before, 8 days
  Relative remission rate (%): 20%

## CN1CC[C@H](c2c(O)cc(O)c3c(=O)cc(-c4ccccc4Cl)oc23)[C@H](O)C1 [Alvocidib]
Example 119, Irinotecan (CPT-11) intraperitoneal injection 240 mg/kg single, CDK inhibitor oral 70 mg/kg single 6 h before, cycle 7 days
  Relative remission rate (%): 40%
Example 201, Gemcitabine 60 mg/kg and paclitaxel 10 mg/kg intravenous injection single, CDK inhibitor oral 70 mg/kg single, 6 h before, 8 days
  Relative remission rate (%): 50%

## COc1cc(F)ccc1-c1ncnc(Nc2cccc(C[S@](C)(=N)=O)c2)n1 [Atuveciclib]
Example 158, Docetaxel (DTX) intraperitoneal injection 10 mg/kg single, CDK inhibitor oral 50 mg/kg single 10 h before, cycle 8 days
  Relative remission rate (%): 30%

## COc1cc(F)ccc1-c1cc(Nc2cc(CS(C)(=N)=O)ccn2)ncc1F (centres unmarked) [BAY-1251152]
Example 38, Fluorouracil (5-Fu) intraperitoneal injection 125 mg/kg single, CDK inhibitor oral 60 mg/kg single 8 h before, cycle 10 days
  Relative remission rate (%): 20%

## CN1CCN(C(=O)c2ccc3cc(CCNc4ncnc5ccc(C#N)cc45)ccc3c2)CC1 [BCD-115]
Example 157, Docetaxel (DTX) intraperitoneal injection 10 mg/kg single, CDK inhibitor oral 80 mg/kg single 10 h before, cycle 8 days
  Relative remission rate (%): 40%
Example 217, Fluorouracil 100 mg/kg and irinotecan 200 mg/kg intravenous injection single, CDK inhibitor oral 80 mg/kg single, 4 h before, 10 days
  Relative remission rate (%): 20%

## CC(=O)c1c(C)c2cnc(Nc3ccc(C4CCN(CCS(C)(=O)=O)CC4)cn3)nc2n(C2CCCC2)c1=O [BEBT-209]
Example 187, Gemcitabine (GEM) intraperitoneal injection 120 mg/kg single, CDK inhibitor oral 80 mg/kg single, 4 h before, 8 days
  Relative remission rate (%): 40%
Example 207, Carboplatin 5 mg/kg and paclitaxel 10 mg/kg intraperitoneal injection single, CDK inhibitor oral 80 mg/kg single, 4 h before, 10 days
  Relative remission rate (%): 50%

## Nc1nccc(-c2ccc(O)c(-c3ccnc(N)n3)n2)n1 [BEY-1107]
Example 154, Docetaxel (DTX) intraperitoneal injection 10 mg/kg single, CDK inhibitor oral 150 mg/kg single 8 h before, cycle 8 days
  Relative remission rate (%): 40%
Example 216, Fluorouracil 100 mg/kg and irinotecan 200 mg/kg intravenous injection single, CDK inhibitor oral 150 mg/kg single, 2 h before, 10 days
  Relative remission rate (%): 30%

## CCN1CCN(Cc2ccc(Nc3ncc(F)c(-c4cc(F)c5nc6n(c5c4)C(C)CCC6)n3)nc2)CC1 (centres unmarked) [BPI-16350]
Example 30, Fluorouracil (5-Fu) intraperitoneal injection 125 mg/kg single, CDK inhibitor oral 150 mg/kg single 6 h before, cycle 10 days
  Relative remission rate (%): 80%
Example 71, Oxaliplatin intraperitoneal injection 20 mg/kg single, CDK inhibitor oral 150 mg/kg single 4 h before, cycle 8 days
  Relative remission rate (%): 40%
Example 196, Gemcitabine 60 mg/kg and paclitaxel 10 mg/kg intraperitoneal injection single, CDK inhibitor oral 150 mg/kg single, 2 h before, 8 days
  Relative remission rate (%): 50%

## Cl.Cl.Cl.Cl.OC[C@@H](O)[C@@H](CO)N1CCNCCNCCNCC1 [CS-3002]
Example 149, Docetaxel (DTX) intraperitoneal injection 10 mg/kg single, CDK inhibitor oral 200 mg/kg single 4 h before, cycle 8 days
  Relative remission rate (%): 70%
Example 223, Fluorouracil 100 mg/kg and oxaliplatin 10 mg/kg intraperitoneal injection single, CDK inhibitor oral 200 mg/kg single, 2 h before, 10 days
  Relative remission rate (%): 50%

## CN1CCN(C2CCN(c3ccc(Nc4ncc5sc(C(=O)N(C)C)c(C6CCCC6)c5n4)nc3)CC2)CC1 [FCN437]
Example 147, Docetaxel (DTX) intraperitoneal injection 10 mg/kg single, CDK inhibitor oral 90 mg/kg single 8 h before, cycle 8 days
  Relative remission rate (%): 60%
Example 206, Carboplatin 5 mg/kg and paclitaxel 10 mg/kg intraperitoneal injection single, CDK inhibitor oral 90 mg/kg single, 4 h before, 10 days
  Relative remission rate (%): 40%

## CC1CCC(n2c3cnccc3c3cnc(Nc4ccc5c(n4)CCN(C(=O)CO)C5)nc32)CC1 (centres unmarked) [FLX-925]
Example 27, Fluorouracil (5-Fu) intraperitoneal injection 125 mg/kg single, CDK inhibitor oral 75 mg/kg single 4 h before, cycle 10 days
  Relative remission rate (%): 50%
Example 69, Oxaliplatin intraperitoneal injection 20 mg/kg single, CDK inhibitor oral 75 mg/kg single 4 h before, cycle 8 days
  Relative remission rate (%): 60%
Example 85, Oxaliplatin intravenous injection 17.5 mg/kg single, CDK inhibitor oral 75 mg/kg single 6 h before, cycle 8 days
  Relative remission rate (%): 60%
Example 114, Irinotecan (CPT-11) intramuscular injection 250 mg/kg single, CDK inhibitor oral 75 mg/kg single 4 h before, cycle 7 days
  Relative remission rate (%): 50%

## CC[C@H](Nc1nc(NCc2cnc(C)cc2C)c2ncn(C(C)C)c2n1)[C@@H](C)O [Fadraciclib]
Example 122, Irinotecan (CPT-11) intraperitoneal injection 240 mg/kg single, CDK inhibitor oral 80 mg/kg single 8 h before, cycle 7 days
  Relative remission rate (%): 30%
Example 159, Docetaxel (DTX) intraperitoneal injection 10 mg/kg single, CDK inhibitor oral 80 mg/kg single 12 h before, cycle 8 days
  Relative remission rate (%): 20%

## CC(C)N1CCN(c2ccc(Nc3ncc4cc5n(c4n3)C3(CCCCC3)CNC5=O)nc2)CC1 [G1T38]
Example 40, Fluorouracil (5-Fu) intraperitoneal injection 125 mg/kg single, CDK inhibitor oral 150 mg/kg single 1 h before, cycle 10 days
  Relative remission rate (%): 20%
Example 41, Fluorouracil (5-Fu) intraperitoneal injection 125 mg/kg single, CDK inhibitor oral 150 mg/kg single 4 h before, cycle 10 days
  Relative remission rate (%): 40%
Example 42, Fluorouracil (5-Fu) intraperitoneal injection 125 mg/kg single, CDK inhibitor oral 150 mg/kg single 8 h before, cycle 10 days
  Relative remission rate (%): 70%
Example 43, Fluorouracil (5-Fu) intraperitoneal injection 125 mg/kg single, CDK inhibitor oral 150 mg/kg single 16 h before, cycle 10 days
  Relative remission rate (%): 50%
Example 79, Oxaliplatin intraperitoneal injection 20 mg/kg single, CDK inhibitor oral 150 mg/kg single 1 h before, cycle 8 days
  Relative remission rate (%): 20%
Example 80, Oxaliplatin intraperitoneal injection 20 mg/kg single, CDK inhibitor oral 150 mg/kg single 2 h before, cycle 8 days
  Relative remission rate (%): 40%
Example 81, Oxaliplatin intraperitoneal injection 20 mg/kg single, CDK inhibitor oral 150 mg/kg single 4 h before, cycle 8 days
  Relative remission rate (%): 40%
Example 82, Oxaliplatin intraperitoneal injection 20 mg/kg single, CDK inhibitor oral 150 mg/kg single 8 h before, cycle 8 days
  Relative remission rate (%): 70%
Example 83, Oxaliplatin intraperitoneal injection 20 mg/kg single, CDK inhibitor oral 150 mg/kg single 12 h before, cycle 8 days
  Relative remission rate (%): 70%
Example 84, Oxaliplatin intraperitoneal injection 20 mg/kg single, CDK inhibitor oral 150 mg/kg single 16 h before, cycle 8 days
  Relative remission rate (%): 50%
Example 125, Irinotecan (CPT-11) intraperitoneal injection 240 mg/kg single, CDK inhibitor oral 150 mg/kg single 4 h before, cycle 7 days
  Relative remission rate (%): 50%
Example 126, Irinotecan (CPT-11) intraperitoneal injection 240 mg/kg single, CDK inhibitor oral 150 mg/kg single 6 h before, cycle 7 days
  Relative remission rate (%): 60%
Example 128, Irinotecan (CPT-11) intramuscular injection 240 mg/kg single, CDK inhibitor oral 150 mg/kg single 2 h before, cycle 7 days
  Relative remission rate (%): 50%
Example 163, Docetaxel (DTX) intraperitoneal injection 10 mg/kg single, CDK inhibitor oral 150 mg/kg single 8 h before, cycle 8 days
  Relative remission rate (%): 70%
Example 164, Docetaxel (DTX) intraperitoneal injection 10 mg/kg single, CDK inhibitor oral 150 mg/kg single 12 h before, cycle 8 days
  Relative remission rate (%): 60%
Example 211, Carboplatin 5 mg/kg and paclitaxel 10 mg/kg intraperitoneal injection single, CDK inhibitor oral 150 mg/kg single, 8 h before, 10 days
  Relative remission rate (%): 40%
Example 212, Carboplatin 5 mg/kg and paclitaxel 10 mg/kg intraperitoneal injection single, CDK inhibitor oral 150 mg/kg single, 12 h before, 10 days
  Relative remission rate (%): 70%

## CC1=Nc2c(F)cc(-c3nc(Nc4ccc(C5CCN(C)CC5)cn4)ncc3F)cc2C12CCCC2 [GLR2007]
Example 155, Docetaxel (DTX) intraperitoneal 10 mg/kg single, CDK inhibitor oral 60 mg/kg single 8 h before, cycle 8 days
  Relative remission rate (%): 50%
Example 168, Docetaxel (DTX) intravenous injection 10 mg/kg single, CDK inhibitor oral 60 mg/kg single 4 h before, cycle 8 days
  Relative remission rate (%): 30%
Example 191, Gemcitabine (GEM) intraperitoneal injection 120 mg/kg single, CDK inhibitor oral 60 mg/kg single, 10 h before, 8 days
  Relative remission rate (%): 50%

## NS(=O)(=O)c1ccc(S(=O)(=O)Nc2cccc3c(Cl)c[nH]c23)cc1 [Indisulam]
Example 74, Oxaliplatin intraperitoneal injection 20 mg/kg single, CDK inhibitor oral 175 mg/kg single 4 h before, cycle 8 days
  Relative remission rate (%): 20%
Example 190, Gemcitabine (GEM) intraperitoneal injection 120 mg/kg single, CDK inhibitor oral 175 mg/kg single, 4 h before, 8 days
  Relative remission rate (%): 40%

## CN1CCN(c2ccc(Nc3ncc4cc(C#N)c(=O)n(C5CCCC5)c4n3)cc2)CC1 [ON123300]
Example 121, Irinotecan (CPT-11) intraperitoneal injection 240 mg/kg single, CDK inhibitor oral 250 mg/kg single 8 h before, cycle 7 days
  Relative remission rate (%): 60%
Example 202, Gemcitabine 60 mg/kg and paclitaxel 10 mg/kg intraperitoneal injection single, CDK inhibitor oral 250 mg/kg single, 2 h before, 8 days
  Relative remission rate (%): 50%

## CC(=O)c1c(C)c2cnc(N[C@@H]3CCOC[C@H]3O)cc2n(C2CCCC2)c1=O [PF-06842874]
Example 210, Carboplatin 5 mg/kg and paclitaxel 10 mg/kg intraperitoneal injection single, CDK inhibitor oral 80 mg/kg single, 6 h before, 10 days
  Relative remission rate (%): 40%
Example 222, Fluorouracil 100 mg/kg and oxaliplatin 10 mg/kg intraperitoneal injection single, CDK inhibitor oral 80 mg/kg single, 4 h before, 10 days
  Relative remission rate (%): 30%

## COCc1cc(C(=O)Nc2cc([C@H]3CC[C@@H](OC(=O)NC(C)C)C3)[nH]n2)n(C)n1 [PF-07104091]
Example 161, Docetaxel (DTX) intraperitoneal injection 10 mg/kg single, CDK inhibitor oral 50 mg/kg single 8 h before, cycle 8 days
  Relative remission rate (%): 40%
